In patent publication US10189841B2, “Purinones as ubiquitin-specific protease 1 inhibitors” (Forma Therapeutics, Inc., priority 2015, dated 2019):

target: USP1 (construct USP1 (I-785, GG670, 671AA)/UAF1 (I-677)-Flag) (Homo sapiens (Human), UniProt O94782, G670A/G671A); test: Ubiquitin-Rhodamine 110 assay for USP1 activity; format: biochemical; settings: USP1/UAF1 25 pM, Ub-Rh110 25 nM, 30 min preincubation
Method in brief: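 Ub-Rh110 (25 nM, ≪Km) cleavage read at ex 485/em 535 in Tris pH 8.0, CaCl2, GSH, Prionex, Triton X-100. The screen used 10 µM compound, 100 pM USP1/UAF1 and 45 min at RT.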

USP1 (construct USP1 (I-785, GG670, 671AA)/UAF1 (I-677)-Flag), sequence (O94782 whole entry G670A/G671A): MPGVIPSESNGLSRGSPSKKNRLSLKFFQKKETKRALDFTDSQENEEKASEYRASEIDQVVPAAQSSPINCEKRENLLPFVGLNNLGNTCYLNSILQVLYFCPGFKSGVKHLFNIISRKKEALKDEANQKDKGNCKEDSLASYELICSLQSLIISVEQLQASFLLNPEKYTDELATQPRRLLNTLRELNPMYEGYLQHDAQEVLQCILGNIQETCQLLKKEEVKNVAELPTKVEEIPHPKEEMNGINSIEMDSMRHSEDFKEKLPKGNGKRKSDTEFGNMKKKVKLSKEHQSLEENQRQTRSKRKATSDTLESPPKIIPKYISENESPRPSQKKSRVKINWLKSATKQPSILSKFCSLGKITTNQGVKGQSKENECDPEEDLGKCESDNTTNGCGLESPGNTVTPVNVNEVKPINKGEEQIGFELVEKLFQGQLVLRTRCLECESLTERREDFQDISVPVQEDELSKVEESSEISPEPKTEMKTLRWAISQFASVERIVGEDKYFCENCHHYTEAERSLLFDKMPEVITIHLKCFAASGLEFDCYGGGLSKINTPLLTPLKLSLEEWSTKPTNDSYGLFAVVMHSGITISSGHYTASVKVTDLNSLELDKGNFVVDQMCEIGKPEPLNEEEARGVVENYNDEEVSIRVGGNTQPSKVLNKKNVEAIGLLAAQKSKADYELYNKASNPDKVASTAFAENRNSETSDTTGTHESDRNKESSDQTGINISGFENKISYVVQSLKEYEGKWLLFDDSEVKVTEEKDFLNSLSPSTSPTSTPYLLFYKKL
USP1 (construct USP1 (I-785, GG670, 671AA)/UAF1 (I-677)-Flag), sequence (Q8TAF3 whole entry partner): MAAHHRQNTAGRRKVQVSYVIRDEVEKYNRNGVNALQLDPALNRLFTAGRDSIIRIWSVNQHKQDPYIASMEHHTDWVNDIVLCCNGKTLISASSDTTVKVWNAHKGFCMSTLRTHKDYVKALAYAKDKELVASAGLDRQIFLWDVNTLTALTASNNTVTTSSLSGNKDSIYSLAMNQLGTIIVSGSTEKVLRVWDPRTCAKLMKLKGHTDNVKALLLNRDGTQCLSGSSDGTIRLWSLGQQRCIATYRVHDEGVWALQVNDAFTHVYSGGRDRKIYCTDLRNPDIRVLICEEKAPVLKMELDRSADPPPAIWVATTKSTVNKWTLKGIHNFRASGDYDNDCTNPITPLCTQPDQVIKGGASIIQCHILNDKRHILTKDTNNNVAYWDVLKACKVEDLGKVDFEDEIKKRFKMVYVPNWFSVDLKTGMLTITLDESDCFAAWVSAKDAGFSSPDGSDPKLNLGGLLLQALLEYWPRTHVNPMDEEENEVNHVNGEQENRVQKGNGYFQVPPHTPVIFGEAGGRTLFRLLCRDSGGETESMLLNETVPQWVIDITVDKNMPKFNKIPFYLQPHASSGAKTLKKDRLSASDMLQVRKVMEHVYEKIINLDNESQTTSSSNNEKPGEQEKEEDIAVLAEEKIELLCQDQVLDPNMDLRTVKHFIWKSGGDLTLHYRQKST

| SMILES | IC50 [nM] |
| --- | --- |
| CC(C)c1ccccc1-c1ncc2[nH]c(=O)n(Cc3ccc(-c4ncn(C)c4CO)cc3)c2n1 [Compound I-297, 9-(4-(5-(hydroxymethyl)-1-methyl-1H-imidazol-4-yl)benzyl)-2-(2-isopropylphenyl)-7,9-dihydro-8H-purin-8-one] | 200 to 2000 |
| CC(C)c1ccccc1-c1ncc2[nH]c(=O)n(Cc3ccc(-c4cnnn4C)cc3)c2n1 [Compound I-298, 2-(2-isopropylphenyl)-9-(4-(1-methyl-1H-1,2,3-triazol-5-yl)benzyl)-7,9-dihydro-8H-purin-8-one] | > 2000 |
| CC(C)c1ccccc1-c1ncc2[nH]c(=O)n(Cc3ccc(-c4ccnn4C(C)C)cc3)c2n1 [Compound I-299, 9-(4-(1-isopropyl-1H-pyrazol-5-yl)benzyl)-2-(2-isopropylphenyl)-7,9-dihydro-8H-purin-8-one] | 50 to 200 |
| Cc1scnc1-c1ccc(Cn2c(=O)[nH]c3cnc(-c4ccccc4C(C)C)nc32)cc1 [Compound I-300, 2-(2-isopropylphenyl)-9-(4-(5-methylthiazol-4-yl)benzyl)-7,9-dihydro-8H-purin-8-one] | < 50 |
| Cc1nc(-c2ccc(Cn3c(=O)[nH]c4cnc(-c5ccccc5C(C)C)nc43)cc2)c(C)s1 [Compound I-301, 9-(4-(2,5-dimethylthiazol-4-yl)benzyl)-2-(2-isopropylphenyl)-7,9-dihydro-8H-purin-8-one] | < 50 |
| CC(C)c1ccccc1-c1ncc2[nH]c(=O)n(Cc3ccc(-c4ncsc4CO)cc3)c2n1 [Compound I-302, 9-(4-(5-(hydroxymethyl)thiazol-4-yl)benzyl)-2-(2-isopropylphenyl)-7,9-dihydro-8H-purin-8-one] | < 50 |
| Cc1scnc1-c1ccc(Cn2c(=O)n(C)c3cnc(-c4ccccc4C(C)C)nc32)cc1 [Compound I-303, 2-(2-isopropylphenyl)-7-methyl-9-(4-(5-methylthiazol-4-yl)benzyl)-7,9-dihydro-8H-purin-8-one] | < 50 |
| Cc1nc(-c2ccc(Cn3c(=O)n(C)c4cnc(-c5ccccc5C(C)C)nc43)cc2)c(C)s1 [Compound I-304, 9-(4-(2,5-dimethylthiazol-4-yl)benzyl)-2-(2-isopropylphenyl)-7-methyl-7,9-dihydro-8H-purin-8-one] | < 50 |
| CC(C)c1ccccc1-c1ncc2c(n1)n(Cc1ccc(-c3ncsc3CO)cc1)c(=O)n2C [Compound I-305, 9-(4-(5-(hydroxymethyl)thiazol-4-yl)benzyl)-2-(2-isopropylphenyl)-7-methyl-7,9-dihydro-8H-purin-8-one] | < 50 |
| Cc1cn2ccnc2c(-c2ccc(Cn3c(=O)[nH]c4cnc(-c5ccccc5C(C)C)nc43)cc2)n1 [Compound I-306, 2-(2-isopropylphenyl)-9-(4-(6-methylimidazo[1,2-a]pyrazin-8-yl)benzyl)-7,9-dihydro-8H-purin-8-one] | < 50 |
| Cc1cn(C)c(-c2ccc(Cn3c(=O)[nH]c4cnc(-c5cccc(F)c5C(C)C)nc43)cc2)n1 [Compound I-307, 9-(4-(1,4-dimethyl-1H-imidazol-2-yl)benzyl)-2-(3-fluoro-2-isopropylphenyl)-7,9-dihydro-8H-purin-8-one] | < 50 |
| CC(C)c1c(F)cccc1-c1ncc2[nH]c(=O)n(Cc3ccc(-c4cn(C)cn4)cc3)c2n1 [Compound I-308, 2-(3-fluoro-2-isopropylphenyl)-9-(4-(1-methyl-1H-imidazol-4-yl)benzyl)-7,9-dihydro-8H-purin-8-one] | < 50 |
| CC(C)c1ccccc1-c1ncc2[nH]c(=O)n([C@H](C)c3ccc(-c4nccn4C)cc3)c2n1 [Compound I-309, (R)-2-(2-isopropylphenyl)-9-(1-(4-(1-methyl-1H-imidazol-2-yl)phenyl)ethyl)-7,9-dihydro-8H-purin-8-one] | < 50 |
| CC(C)c1ccccc1-c1ncc2[nH]c(=O)n([C@@H](C)c3ccc(-c4nccn4C)cc3)c2n1 [Compound I-310, (S)-2-(2-isopropylphenyl)-9-(1-(4-(1-methyl-1H-imidazol-2-yl)phenyl)ethyl)-7,9-dihydro-8H-purin-8-one] | < 50 |
| CNc1ncccc1-c1ncc2[nH]c(=O)n(Cc3ccc(-c4nc(C(F)(F)F)cn4C)cc3)c2n1 [Compound I-311, 9-(4-(1-methyl-4-(trifluoromethyl)-1H-imidazol-2-yl)benzyl)-2-(2-(methylamino)pyridin-3-yl)-7,9-dihydro-8H-purin-8-one] | < 50 |
| CCNc1ncccc1-c1ncc2[nH]c(=O)n(Cc3ccc(-c4nc(C(F)(F)F)cn4C)cc3)c2n1 [Compound I-312, 2-(2-(ethylamino)pyridin-3-yl)-9-(4-(1-methyl-4-(trifluoromethyl)-1H-imidazol-2-yl)benzyl)-7,9-dihydro-8H-purin-8-one] | < 50 |
| CC(C)Nc1ncccc1-c1ncc2[nH]c(=O)n(Cc3ccc(-c4nc(C(F)(F)F)cn4C)cc3)c2n1 [Compound I-313, 2-(2-(isopropylamino)pyridin-3-yl)-9-(4-(1-methyl-4-(trifluoromethyl)-1H-imidazol-2-yl)benzyl)-7,9-dihydro-8H-purin-8-one] | < 50 |
| Cn1cc(C(F)(F)F)nc1-c1ccc(Cn2c(=O)[nH]c3cnc(-c4cccnc4NC4CC4)nc32)cc1 [Compound I-314, 2-(2-(cyclopropylamino)pyridin-3-yl)-9-(4-(1-methyl-4-(trifluoromethyl)-1H-imidazol-2-yl)benzyl)-7,9-dihydro-8H-purin-8-one] | < 50 |
| CCOCCNc1ncccc1-c1ncc2[nH]c(=O)n(Cc3ccc(-c4nc(C(F)(F)F)cn4C)cc3)c2n1 [Compound I-315, 2-(2-((2-ethoxyethyl)amino)pyridin-3-yl)-9-(4-(1-methyl-4-(trifluoromethyl)-1H-imidazol-2-yl)benzyl)-7,9-dihydro-8H-purin-8-one] | < 50 |
| Cn1cc(C(F)(F)F)nc1-c1ccc(Cn2c(=O)[nH]c3cnc(-c4cccnc4NC4CCC4)nc32)cc1 [Compound I-316, 2-(2-(cyclobutylamino)pyridin-3-yl)-9-(4-(1-methyl-4-(trifluoromethyl)-1H-imidazol-2-yl)benzyl)-7,9-dihydro-8H-purin-8-one] | 50 to 200 |
| COCC(C)Nc1ncccc1-c1ncc2[nH]c(=O)n(Cc3ccc(-c4nc(C(F)(F)F)cn4C)cc3)c2n1 (centres unmarked) [Compound I-317, 2-(2-((1-methoxypropan-2-yl)amino)pyridin-3-yl)-9-(4-(1-methyl-4-(trifluoromethyl)-1H-imidazol-2-yl)benzyl)-7,9-dihydro-8H-purin-8-one] | 50 to 200 |
| CN(C)C(=O)CNc1ncccc1-c1ncc2[nH]c(=O)n(Cc3ccc(-c4nc(C(F)(F)F)cn4C)cc3)c2n1 [Compound I-318, N,N-dimethyl-2-((3-(9-(4-(1-methyl-4-(trifluoromethyl)-1H-imidazol-2-yl)benzyl)-8-oxo-8,9-dihydro-7H-purin-2-yl)pyridin-2-yl)amino)acetamide] | 200 to 2000 |
| COC[C@@H](C)Nc1ncccc1-c1ncc2[nH]c(=O)n(Cc3ccc(-c4nc(C(F)(F)F)cn4C)cc3)c2n1 [Compound I-319, (R)-2-(2-((1-methoxypropan-2-yl)amino)pyridin-3-yl)-9-(4-(1-methyl-4-(trifluoromethyl)-1H-imidazol-2-yl)benzyl)-7,9-dihydro-8H-purin-8-one] | 200 to 2000 |
